In article PMC7377239, “Cardiovascular Effects of Polychlorinated Biphenyls and Their Major Metabolites” (Environmental Health Perspectives, 2020):
Counter-ions that a name gives are not always drawn. Like-named read-outs stand apart in the source and are kept apart here.

Test system: iCell cardiomyocytes (human iPSC-derived cardiomyocytes)
Assay: Intracellular Ca2+ flux / beating parameters in iCell cardiomyocytes (FLIPR tetra), 90 min or 24 h
Type: cell-based
Conditions: Homo sapiens, Cardiomyocyte, 0.00 µM = 100.00; for activity at 0.1 µM: 0.10 µM
Experimental: Details on cardiomyocyte cell culture are described in detail elsewhere ([Grimm et al. 2015b]; [Sirenko et al. 2013a]). Briefly, tissue-culture treated 384 well plates were gelatinized with 25μL per well of 0.1% (w/v) gelatin in water for 2 h at 37°C and 5% CO2 . Individual vials of cells were thawed for 4 min in a water bath maintained at 37°C. Thawed cells were resuspended in 10ml plating medium containing 1:500 (vol/vol) penicillin/streptomycin solution at room temperature (RT). Live cell counts for each cell suspension were determined by trypan blue staining and cells were further diluted to provide final cell densities of 2×10^5 viable cells/ml. Thus, 5,000 cells suspended in 25μL media were transferred per well after the gelatin solution had been discarded. Cell culture plates were rested for 30 min at RT before they were incubated for 48 h at 37°C and 5% CO2 . Then, a media exchange with 30μL of fresh maintenance medium containing 1:500 (vol/vol) penicillin/streptomycin solution was performed, and cell media were subsequently changed every 48 h for 12 d. On the experiment day, the medium was completely exchanged with either 25μL (for Ca^2+ flux assay) or 40μL (for imaging) of fresh medium.
Responses of iCell®-cardiomyocytes to drugs and chemicals were evaluated using intracellular Ca^2+ flux measurements ([Grimm et al. 2015b]; [Sirenko et al. 2013b]). For experiments, 20 mM stock solutions of PCBs and PCB metabolites were prepared in DMSO ( 200× ). Chemical working solutions ( 5× ) were prepared using cardiomyocyte maintenance medium and contained 2.5% (vol/vol) DMSO. These chemical master plates were prepared to include all chemicals in concentration–response (0.05, 0.5, 5, 50, and 500μM ). Negative controls included media-only and vehicle control (i.e., 0.5% vol/vol DMSO in cell culture media) wells. Positive assay controls were consistent with previously published reports ([Grimm et al. 2018]) and included TAB ( 50μM ) as a cytotoxic control, and isoproterenol ( 0.1–10μM ), propranolol ( 0.1–5 μM ), cisapride ( 0.01–1μM ), and doxorubicin ( 0.1–5μM ) as chemicals associated with specific effects on beating and ion flux. Each test chemical was screened in triplicate for each concentration.
Experiments started with the addition of 25μL of prewarmed 2× concentrated calcium dye reagent to sample wells containing 25μL maintenance media. Microplates were then acclimated for 2 h at 37°C. Following equilibration, cardiomyocyte sample wells were treated simultaneously by the addition of 12.5μL of prewarmed 5× chemical solution to iCell®-cardiomyocytes using the automated liquid handler in the FLIPR tetra (Molecular Devices). Treated cell cultures were incubated for either 90 min or 24 h. After the conclusion of the treatment period, the Ca^2+ flux was measured for 100 s at a frequency of 8 Hz using the integrated fluorescence plate reader in the FLIPR tetra (Molecular Devices) using an emission wavelength range of λemission=515–575 nm ( λexcitation=470–495 nm ). Additional instrument settings included exposure time per read of 0.05s, a gain of 2000, an excitation intensity of 30%, and an internal temperature of 37°C.
Ca^2+ flux data were processed in R studio (version 1.0.136, with R version 3.3.2; R Development Core Team) as described elsewhere ([Blanchette et al. 2019]; [Burnett et al. 2019]). Calculated quantitative metrics included the means and coefficients of variation (CV) of the peak height, which can be indicative of cytotoxicity, inhibition, or stimulation of beating. Means of peak frequency, an indicator of positive or negative […], and CV of peak spacing, an indicator of irregular beating, were also derived from Ca^2+ flux traces. Finally, the mean ratio of the decay over rise time was calculated. Increases in the decay/rise time ratio are reflective of delayed repolarization and are a measure for QT prolongation. […]

[1] = 1.5 h, read-out: cm.amp.avg.90min
[2] = 1.5 h, read-out: cm.amp.cv.90min
[3] = 1.5 h, read-out: cm.decay.rise.90min
[4] = 1.5 h, read-out: cm.spacing.cv.90min
[5] = 24 h, read-out: cm.amp.avg.24hrs
[6] = 24 h, read-out: cm.amp.cv.24hrs
[7] = 24 h, read-out: cm.decay.rise.24hrs
[8] = 24 h, read-out: cm.spacing.cv.24hrs

Structure (SMILES): O=S(=O)(O)Oc1cccc(-c2ccc(Cl)cc2)c1 [3'-yl PCB 3 sulfate]
- activity at 0.01 µM [1]: 106%
- activity at 0.01 µM [2]: 121%
- activity at 0.01 µM (1.5 h, read-out: cm.bpm.90min): 96.5%
- activity at 0.01 µM [3]: 95.8%
- activity at 0.01 µM [4]: 108%
- activity at 0.1 µM [1]: 106%
- activity at 0.1 µM [2]: 103%
- activity at 0.1 µM (1.5 h, read-out: cm.bpm.90min): 100%
- activity at 0.1 µM [3]: 99.3%
- activity at 0.1 µM [4]: 110%
- activity at 1 µM [1]: 111%
- activity at 1 µM [2]: 84.7%
- activity at 1 µM (1.5 h, read-out: cm.bpm.90min): 99.1%
- activity at 1 µM [3]: 96.2%
- activity at 1 µM [4]: 94.2%
- activity at 10 µM [1]: 109%
- activity at 10 µM [2]: 88.3%
- activity at 10 µM (1.5 h, read-out: cm.bpm.90min): 100%
- activity at 10 µM [3]: 95.3%
- activity at 10 µM [4]: 94.3%
- activity at 100 µM [1]: 109%
- activity at 100 µM [2]: 86.7%
- activity at 100 µM (1.5 h, read-out: cm.bpm.90min): 91.5%
- activity at 100 µM [3]: 99.4%
- activity at 100 µM [4]: 107%
- activity at 0.01 µM [5]: 79%
- activity at 0.01 µM [6]: 31.6%
- activity at 0.01 µM (24 h, read-out: cm.bpm.24hrs): 52.5%
- activity at 0.01 µM [7]: 45.2%
- activity at 0.01 µM [8]: 48.7%
- activity at 0.1 µM [5]: 60.9%
- activity at 0.1 µM [6]: 151%
- activity at 0.1 µM (24 h, read-out: cm.bpm.24hrs): 102%
- activity at 0.1 µM [7]: 90.7%
- activity at 0.1 µM [8]: 98.6%
- activity at 1 µM [5]: 86.6%
- activity at 1 µM [6]: 96.4%
- activity at 1 µM (24 h, read-out: cm.bpm.24hrs): 89.7%
- activity at 1 µM [7]: 117%
- activity at 1 µM [8]: 96.2%
- activity at 10 µM [5]: 75%
- activity at 10 µM [6]: 122%
- activity at 10 µM (24 h, read-out: cm.bpm.24hrs): 101%
- activity at 10 µM [7]: 98.6%
- activity at 10 µM [8]: 93.8%
- activity at 100 µM [5]: 85%
- activity at 100 µM [6]: 91.8%
- activity at 100 µM (24 h, read-out: cm.bpm.24hrs): 92.6%
- activity at 100 µM [7]: 99%
- activity at 100 µM [8]: 87.7%

Structure (SMILES): O=S(=O)(O)Oc1cc(-c2ccccc2)ccc1Cl [3-yl PCB 3 sulfate]
- activity at 0.01 µM [1]: 95.2%
- activity at 0.01 µM [2]: 101%
- activity at 0.01 µM (1.5 h, read-out: cm.bpm.90min): 96.5%
- activity at 0.01 µM [3]: 101%
- activity at 0.01 µM [4]: 112%
- activity at 0.1 µM [1]: 102%
- activity at 0.1 µM [2]: 103%
- activity at 0.1 µM (1.5 h, read-out: cm.bpm.90min): 97.8%
- activity at 0.1 µM [3]: 105%
- activity at 0.1 µM [4]: 107%
- activity at 1 µM [1]: 96.9%
- activity at 1 µM [2]: 94.9%
- activity at 1 µM (1.5 h, read-out: cm.bpm.90min): 99.1%
- activity at 1 µM [3]: 97.7%
- activity at 1 µM [4]: 102%
- activity at 10 µM [1]: 97.3%
- activity at 10 µM [2]: 107%
- activity at 10 µM (1.5 h, read-out: cm.bpm.90min): 96.5%
- activity at 10 µM [3]: 96.9%
- activity at 10 µM [4]: 101%
- activity at 100 µM [1]: 113%
- activity at 100 µM [2]: 90.5%
- activity at 100 µM (1.5 h, read-out: cm.bpm.90min): 99.1%
- activity at 100 µM [3]: 95.6%
- activity at 100 µM [4]: 92.1%
- activity at 0.01 µM [5]: 58.6%
- activity at 0.01 µM [6]: 42.1%
- activity at 0.01 µM (24 h, read-out: cm.bpm.24hrs): 49.6%
- activity at 0.01 µM [7]: 54.9%
- activity at 0.01 µM [8]: 62.7%
- activity at 0.1 µM [5]: 51.9%
- activity at 0.1 µM [6]: 31.8%
- activity at 0.1 µM (24 h, read-out: cm.bpm.24hrs): 47.7%
- activity at 0.1 µM [7]: 58%
- activity at 0.1 µM [8]: 42.3%
- activity at 1 µM [5]: 26.2%
- activity at 1 µM [6]: 69.1%
- activity at 1 µM (24 h, read-out: cm.bpm.24hrs): 46.8%
- activity at 1 µM [7]: 51.2%
- activity at 1 µM [8]: 53.3%
- activity at 10 µM [5]: 79.1%
- activity at 10 µM [6]: 146%
- activity at 10 µM (24 h, read-out: cm.bpm.24hrs): 94.5%
- activity at 10 µM [7]: 96.3%
- activity at 10 µM [8]: 96.4%
- activity at 100 µM [5]: 97.7%
- activity at 100 µM [6]: 77.4%
- activity at 100 µM (24 h, read-out: cm.bpm.24hrs): 85%
- activity at 100 µM [7]: 116%
- activity at 100 µM [8]: 85.3%
